Test results from patent US8697158B2, “Mineral amino acid polysaccharide complex” (Melaleuca, Inc., priority 2008, dated 2014).

Key:
[1] = Hydroxyl radical formation (EPR, DMPO spin trapping); details: metal 800 μM, DMPO 18.7 mM, H2O2 61 mM, HEPES pH 7.2; relative to AAC
Experimental: The rate of hydroxyl radical formation catalyzed by a complex comprising an iron- or copper-amino acid inulin complex was compared to the iron- or copper-amino acid compound alone.
Mineral (Cu or Fe) was dissolved in 10 mM HEPES buffer (pH 7.2) containing DMPO. Iron and copper were used in the form of amino acid compounds (i.e., glycinates; AAC) and as amino acid inulin complexes (1:9 w/w; AAC/OF). Hydrogen peroxide was added 90 seconds prior to measurement.
The spin trapping reagent—5,5-dimethylpyrroline-N-oxide (DMPO) was used for monitoring hydroxyl radical.
The relative signal amplitudes for DMPO/hydroxyl radical adduct, which can be correlated to the concentration of hydroxyl radical present in the solution, was measured (Table 3).

[2] = Ascorbyl radical kinetics (EPR), iron-catalyzed ascorbic oxidation; details: for relative amplitude of the ascorbyl radical signal: iron solution 0.9 mM, ascorbic acid 4.04 mM, HEPES pH 7.2
Experimental: Samples of iron(II) sulfate, iron(II) bis-glycinate (FeAAC), and an iron(II) bis-glycinate inulin complex (FeAAC/OF; ratio 1:10 w/w) were analyzed using EPR spectroscopy to determine their ability to generate the ascorbate radical, i.e. to catalyze ascorbic oxidation. The samples were dissolved in 10 mM HEPES buffer (pH 7.2) to a final concentration 0.9 mM of iron.
The iron solutions were mixed with the ascorbic acid solution, and the mixture was transferred into capillary tubes for measurement. Multiple readings were performed over 30 minutes.
EPR measurements were performed in 50 μL capillary tubes at room temperature using a Bruker ER-200 X-band EPR spectrometer.
The relative amplitudes of the ascorbyl radical signal, which can be correlated to the concentration of ascorbyl radical present in the solution, were measured (Table 2).

[3] = Mineral solubility at conditions close to physiological; details: one hour at pH 1-1.2, then one hour at pH 7-7.2; supernatant after centrifugation
Experimental: Two forms of zinc, copper, and iron were tested for solubility at conditions close to physiological. […] Samples, in an amount equivalent to 20 tablets, were suspended in 20 mL of water. The pH was adjusted to 1-1.2 and maintained for one hour, simulating a gastric environment. After the first hour, the pH was adjusted to 7-7.2 and maintained for another hour, simulating an intestinal environment. The product was then centrifuged and the supernatant taken for analysis.

[4] = Copper-mediated oxidation of Trolox (Fenton system, EPR)
Experimental: The one-electron oxidation of Trolox results in the formation of a phenoxyl radical that is readily detected by EPR. All EPR measurements were done in using a Bruker ER-200 X-band EPR spectrometer. Samples (50 μL) in capillary tubes (0.5 mm i.d.) were examined at room temperature.

| Molecule | relative signal amplitude for DMPO/hydroxyl radical adduct [1] [%] | relative amplitude of the ascorbyl radical signal ([2]; time 1.5 min) [%] | relative amplitude of the ascorbyl radical signal ([2]; time 3.5 min) [%] | relative amplitude of the ascorbyl radical signal ([2]; time 5.5 min) [%] | relative amplitude of the ascorbyl radical signal ([2]; time 10.0 min) [%] | relative amplitude of the ascorbyl radical signal ([2]; time 14.0 min) [%] | relative amplitude of the ascorbyl radical signal ([2]; time 20.0 min) [%] | relative amplitude of the ascorbyl radical signal ([2]; time 28.0 min) [%] | also measured |
| --- | --- | --- | --- | --- | --- | --- | --- | --- | --- |
| NCC(=O)[O-].NCC(=O)[O-].[Cu+2] [Cu AAC] | 100 |  |  |  |  |  |  |  |  |
| NCC(=O)[O-].NCC(=O)[O-].[Fe+2] [FeAAC, iron(II) bis-glycinate] | 100 | 100 | 74 | 65 | 47 | 33 | 19 | 19 | stabilization (lifetime) of the ascorbyl radical ([2]; compared with the iron sulfate): longer period of time |
| O=S(=O)([O-])[O-].[Fe+2] [FeSO4, iron(II) sulfate] |  | 100 | 76 | 64 | 24 | 14 | 10 | 5 |  |
| [O-2].[Zn+2] [Zinc Inorganic Form, zinc oxide] |  |  |  |  |  |  |  |  | percent of solubilized mineral [3]: 1.2% |
| gluconate |  |  |  |  |  |  |  |  | EPR signal of the Trolox free radical, reduction compared to CuSO4 [4]: about 15% |
